The source of these data is patent publication US8198287B2, “Substituted heteroaryl pyridopyrimidone derivatives” (Sanofi-Aventis, priority 2006, dated 2012).

The target in this assay is GSK3β (Homo sapiens, UniProt P49841). As to the kind of experiment: Inhibitory activity against GSK3β (33P-ATP phosphorylation of prephosphorylated GS1 peptide; two alternative protocols). Type of assay: biochemical. The conditions noted are these: first or second protocol, not specified per compound. Here is the method:
Inhibitory Activity of the Medicament of the Present Invention Against GSK3β
Two different protocols can be used.
In a first protocol: 7.5 μM of prephosphorylated GS1 peptide and 10 μM ATP (containing 300,000 cpm of ^33P-ATP) were incubated in 25 mM Tris-HCl, pH 7.5, 0.6 mM DTT, 6 mM MgCl2, 0.6 mM EGTA, 0.05 mg/ml BSA buffer for 1 hour at room temperature in the presence of GSK3beta (total reaction volume: 100 microliters).
In a second protocol: 4.1 μM of prephosphorylated GS1 peptide and 42 μM ATP (containing 260,000 cpm ^33P-ATP) were incubated in 80 mM Mes-NaOH, pH 6.5, 1 mM Mg acetate, 0.5 mM EGTA, 5 mM 2-mercaptoethanol, 0.02% Tween 20, 10% glycerol buffer for 2 hours at room temperature in the presence of GSK3beta.
Inhibitors were solubilized in DMSO (final solvent concentration in the reaction medium, 1%).
The reaction was stopped with 100 microliters of a solution made of 25 g polyphosphoric acid (85% P2O5), 126 ml 85% H3PO4, H2O to 500 ml and then diluted to 1:100 before use. An aliquot of the reaction mixture was then transferred to Whatman P81 cation exchange filters and rinsed with the solution described above. Incorporated ^33P radioactivity was determined by liquid scintillation spectrometry.
The phosphorylated GS-1 peptide had the following sequence:
NH2—[…](P)EDEE-COOH. (Woodgett, J. R. (1989) Analytical Biochemistry 180, 237-241.

Molecules are shown by their SMILES.

Sequence of GSK3β (P49841 whole entry): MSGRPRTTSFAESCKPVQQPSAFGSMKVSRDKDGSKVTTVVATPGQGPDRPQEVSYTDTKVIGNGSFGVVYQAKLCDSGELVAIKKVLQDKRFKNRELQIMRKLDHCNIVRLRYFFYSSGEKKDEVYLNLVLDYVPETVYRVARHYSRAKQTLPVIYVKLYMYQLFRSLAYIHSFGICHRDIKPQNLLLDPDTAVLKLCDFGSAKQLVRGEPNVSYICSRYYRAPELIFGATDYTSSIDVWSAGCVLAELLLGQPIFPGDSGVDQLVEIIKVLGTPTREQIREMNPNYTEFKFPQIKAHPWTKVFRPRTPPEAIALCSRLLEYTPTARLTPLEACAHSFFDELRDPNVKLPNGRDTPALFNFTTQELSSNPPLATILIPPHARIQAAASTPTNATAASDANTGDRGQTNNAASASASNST

A word on the IC50: it is the concentration needed to halve the response being measured. A low value points to greater potency. For the compound `CSc1ncc(Cl)c(C(=O)NC2CCn3c2nc(-c2ccncn2)cc3=O)n1` (racemic) [14 of table 2, (+/−)5-Chloro-2-methylsulfanyl-pyrimidine-4-carboxylic acid (4-oxo-2-pyrimidin-4-yl-4,6,7,8-tetrahydro-pyrrolo[1,2-a]pyrimidin-8-yl) -amide], the IC50 came out at 4 nM.

In turn, `Nc1c(Cl)cc(C(=O)NC2CCCn3c2nc(-c2ccncc2)cc3=O)c2c1OCCO2` (racemic) [13 of table 1, (+/−)8-Amino-7-chloro-2,3-dihydro-benzo[1,4]dioxine-5-carboxylic acid (4-oxo-2-pyridin-4-yl-6,7,8,9-tetrahydro-4H-pyrido[1,2-a]pyrimidin-9-yl)-amide] yielded an IC50 of 14 nM.

Turning to `O=C(NC1CCCCn2c1nc(-c1ccncn1)cc2=O)c1cccc(Cl)n1` (racemic) [53 of table 3, (+/−)6-Chloro-pyridine-2-carboxylic acid (4-oxo-2-pyrimidin-4-yl-4,6,7,8,9,10-hexahydro-pyrimido[1,2-a]azepin-10-yl)-amide], half-maximal inhibition (IC50) required 5 nM.
